What all share (test): PKC assay
In experiment [1] the target is Protein kinase C alpha type (Homo sapiens, UniProt P17252). How it is done: (§1) The activity of PKC, activated by phosphatidylerine and Ca2+, is measured by its ability to transfer phosphate from [gamma-32P]ATP to lysine-rich histone.
The target of experiment [2] is Protein kinase C beta type (Homo sapiens, UniProt P05771). As for the experimental part:
as §1

The target of experiment [3] is Protein kinase C delta type (Homo sapiens, UniProt Q05655). As for the experimental part: as §1
Protein kinase C delta type, sequence (Q05655 whole entry): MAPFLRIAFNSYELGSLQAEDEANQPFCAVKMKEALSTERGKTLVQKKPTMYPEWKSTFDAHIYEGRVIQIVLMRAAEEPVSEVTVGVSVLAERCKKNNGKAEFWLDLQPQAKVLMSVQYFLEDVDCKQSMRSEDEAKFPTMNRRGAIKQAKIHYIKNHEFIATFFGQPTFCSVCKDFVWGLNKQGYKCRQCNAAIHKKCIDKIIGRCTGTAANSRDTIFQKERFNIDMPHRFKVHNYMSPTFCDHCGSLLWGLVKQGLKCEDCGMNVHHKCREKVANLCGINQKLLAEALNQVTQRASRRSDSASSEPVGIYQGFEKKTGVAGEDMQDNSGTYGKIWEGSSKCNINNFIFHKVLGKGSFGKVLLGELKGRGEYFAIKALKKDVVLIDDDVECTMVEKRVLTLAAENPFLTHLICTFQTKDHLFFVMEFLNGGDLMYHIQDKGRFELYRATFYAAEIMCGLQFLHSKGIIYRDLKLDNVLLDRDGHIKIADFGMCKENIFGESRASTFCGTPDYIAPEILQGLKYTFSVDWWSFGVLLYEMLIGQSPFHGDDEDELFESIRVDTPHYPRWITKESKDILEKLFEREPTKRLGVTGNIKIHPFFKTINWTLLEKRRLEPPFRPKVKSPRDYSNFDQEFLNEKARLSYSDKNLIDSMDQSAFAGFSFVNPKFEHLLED
Experiment [4] concerns the target T1, Protein kinase C epsilon type (Homo sapiens, UniProt Q02156).
T1 sequence (Q02156 whole entry): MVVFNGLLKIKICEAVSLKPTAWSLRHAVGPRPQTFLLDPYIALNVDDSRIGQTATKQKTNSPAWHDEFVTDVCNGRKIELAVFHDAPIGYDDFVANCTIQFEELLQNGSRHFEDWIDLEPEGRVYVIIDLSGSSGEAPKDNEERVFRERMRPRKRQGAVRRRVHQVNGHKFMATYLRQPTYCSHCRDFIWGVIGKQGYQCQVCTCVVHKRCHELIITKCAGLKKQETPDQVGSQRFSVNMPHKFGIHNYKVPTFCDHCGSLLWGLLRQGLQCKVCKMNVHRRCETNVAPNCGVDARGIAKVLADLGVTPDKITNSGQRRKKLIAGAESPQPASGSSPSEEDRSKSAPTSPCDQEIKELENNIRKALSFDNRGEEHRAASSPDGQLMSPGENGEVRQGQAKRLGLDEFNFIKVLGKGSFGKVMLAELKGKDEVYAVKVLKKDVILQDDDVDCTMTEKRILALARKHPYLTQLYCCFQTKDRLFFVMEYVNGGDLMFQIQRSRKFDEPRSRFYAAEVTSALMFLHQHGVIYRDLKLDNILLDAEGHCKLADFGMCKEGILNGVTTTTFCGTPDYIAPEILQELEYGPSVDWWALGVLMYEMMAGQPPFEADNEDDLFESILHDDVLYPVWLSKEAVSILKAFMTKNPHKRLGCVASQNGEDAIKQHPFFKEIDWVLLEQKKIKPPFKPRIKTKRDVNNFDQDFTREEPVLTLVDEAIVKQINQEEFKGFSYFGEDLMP
As for the experimental part: as §1

The target in experiment [5] is Protein kinase C eta type (Homo sapiens, UniProt P24723). How it is done: as §1
Protein kinase C eta type, sequence (P24723 whole entry): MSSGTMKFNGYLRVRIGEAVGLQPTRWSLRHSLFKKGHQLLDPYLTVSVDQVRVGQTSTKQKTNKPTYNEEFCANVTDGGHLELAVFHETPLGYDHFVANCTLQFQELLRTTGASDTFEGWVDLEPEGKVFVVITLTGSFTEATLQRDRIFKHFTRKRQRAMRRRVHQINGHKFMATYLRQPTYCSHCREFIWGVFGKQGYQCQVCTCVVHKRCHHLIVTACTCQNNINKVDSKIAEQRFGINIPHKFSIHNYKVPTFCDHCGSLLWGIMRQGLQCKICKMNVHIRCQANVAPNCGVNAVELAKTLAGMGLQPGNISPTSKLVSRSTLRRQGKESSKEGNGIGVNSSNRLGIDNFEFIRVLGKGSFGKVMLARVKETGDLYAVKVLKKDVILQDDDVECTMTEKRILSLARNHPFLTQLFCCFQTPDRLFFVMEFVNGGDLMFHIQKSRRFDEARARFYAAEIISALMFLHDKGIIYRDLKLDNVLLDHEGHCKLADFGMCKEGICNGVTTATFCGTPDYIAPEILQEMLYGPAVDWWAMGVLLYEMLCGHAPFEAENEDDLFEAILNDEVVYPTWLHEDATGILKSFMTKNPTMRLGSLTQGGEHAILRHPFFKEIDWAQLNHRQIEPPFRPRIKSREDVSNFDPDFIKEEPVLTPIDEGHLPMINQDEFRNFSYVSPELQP

Protein kinase C beta type, sequence (P05771 whole entry): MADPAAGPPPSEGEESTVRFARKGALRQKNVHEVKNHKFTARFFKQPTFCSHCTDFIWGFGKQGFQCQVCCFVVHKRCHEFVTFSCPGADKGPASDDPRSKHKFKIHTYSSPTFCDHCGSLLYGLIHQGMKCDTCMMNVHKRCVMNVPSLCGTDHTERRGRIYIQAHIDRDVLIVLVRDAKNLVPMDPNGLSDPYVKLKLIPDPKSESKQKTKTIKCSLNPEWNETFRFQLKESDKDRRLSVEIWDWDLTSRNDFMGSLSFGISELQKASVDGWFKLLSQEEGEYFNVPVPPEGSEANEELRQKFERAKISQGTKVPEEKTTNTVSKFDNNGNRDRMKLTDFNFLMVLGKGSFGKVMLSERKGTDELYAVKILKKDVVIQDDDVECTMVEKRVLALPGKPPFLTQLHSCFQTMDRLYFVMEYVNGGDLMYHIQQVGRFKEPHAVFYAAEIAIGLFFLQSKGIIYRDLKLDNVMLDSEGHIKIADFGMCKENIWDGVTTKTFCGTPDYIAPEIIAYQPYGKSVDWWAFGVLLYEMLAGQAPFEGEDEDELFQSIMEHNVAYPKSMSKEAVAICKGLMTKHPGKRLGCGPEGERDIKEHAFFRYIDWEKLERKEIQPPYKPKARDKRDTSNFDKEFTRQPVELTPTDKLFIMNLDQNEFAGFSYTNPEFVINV

In general, IC50 refers to the midpoint of a concentration-inhibition curve. For `COC(=O)c1cccc(O)c1Oc1c(O)cc(C(=O)O[C@@H]2CCC[C@H]2NC(=O)c2ccc(O)cc2)cc1O` [(1R,2R)-2-[(4-hydroxybenzene)amido]cyclopentyl 3,5-dihydroxy-4-[2-hydroxy-6-(methoxycarbonyl)phenoxy]benzoate], the 50% inhibitory concentration (IC50) turned out to be 0.21 µM in experiment [1]; 0.04 µM in experiment [2]; 0.005 µM in experiment [3]; 0.3 µM in experiment [4]; 0.004 µM in experiment [5].

As to `COC(=O)c1cccc(O)c1Oc1c(O)cc(C(=O)O[C@H]2CCC[C@@H]2NC(=O)c2ccc(O)cc2)cc1O` [(1S,2S)-2-[(4-hydroxybenzene)amido]cyclopentyl 3,5-dihydroxy-4-[2-hydroxy-6-(methoxycarbonyl)phenoxy]benzoate], the IC50 was found to be 4.2 µM in experiment [1]; 1.8 µM in experiment [2]; 0.25 µM in experiment [3]; 20 µM in experiment [4]; 0.4 µM in experiment [5].
